From patent US20220023335A1, “COMPOSITION FOR PREVENTION AND/OR IMPROVEMENT OF ADVERSE DRUG REACTION, SYMPTOM ASSOCIATED WITH ADVERSE DRUG REACTION, AND/OR ADVERSE REACTION ASSOCIATED WITH MEDICAL TREATMENT” (MiZ Company Limited, priority 2020, published 2022)

How the values were obtained:
[1] = known; cited from earlier work
[2] = system: rhabdomyolysis caused by the antibacterial agent; conditions: person, hydrogen gas 6.6% by volume, approximately 120 mL/min, 90 minutes per day for two weeks
Description: They lost strength in the body and was taken to hospital by ambulance. […] They were discharged from hospital one week later, but the tiredness persisted, and they had difficulty in putting strength into the limbs. […] Their condition improved to the extent that they could have a walk.

[3] = system: adverse drug reactions of lost hair on the head and rough skin; conditions: person, hydrogen gas 6.6% by volume, approximately 120 mL/min
[4] = system: adverse drug reactions of sleepiness and tiredness; conditions: person, three days later
[5] = system: adverse drug reaction of persistent insomnia, malaise; conditions: person
Description: A patient with esophageal cancer experienced an adverse drug reaction of persistent insomnia due to treatment with anticancer agents, lost appetite because of malaise, and could not even go out. […] The inhalation time per day was two to three hours. […] When they drank too much alcohol, they used to have a severe hangover.

[6] = system: malaise and nausea after radiotherapy; conditions: cancer patient after radiotherapy, hydrogen gas 3% to 4% by volume, approximately 120 mL/min
[7] = system: adverse reactions to hemodialysis (walking difficulty, edema); conditions: person on hemodialysis, hydrogen approximately 5% in air, 200 mL/min, three to four hours per day
Description: A patient developed renal failure as a complication of diabetes mellitus and has been receiving hemodialysis since 2006.

[8] = system: adverse drug reactions of malaise and rough skin; conditions: person; hydrogen gas 4% to 5% by volume, approximately 200 mL/min, three to five hours per day, plus 500 mL per day of 7 ppm hydrogen water; three months

In the case of `[2H][2H]` [D2, deuterium], the “superoxide eliminating effect compared with H2” value [1] is listed as “stronger”.

In the case of `[HH]` [hydrogen gas, molecular hydrogen], the “strength in the limbs” value ([2]; new quinolone antibacterial agent) was “became gradually able to put strength into the limbs”, the tiredness [2] was “reduced tiredness” and the rough skin ([3]; sarcoma, anticancer agents and Opdivo, approximately one month later) was “the rough skin started improving”. The “hair on the head” value ([3]; inhalation continued for six months after anticancer treatment) was “started growing”, the “tiredness of the body after taking the drugs” value ([4]; cedar pollinosis, hydrogen gas 6.6% by volume, approximately 120 mL/min, 90 minutes to three hours per day, plus 7 ppm hydrogen water 500 mL to 1 L per day) was “reduced” and the “sleepiness / clearness of the head” value ([4]; hydrogen gas 6.6% by volume plus 7 ppm hydrogen water) was “they felt that the head was cleared”. For the same compound, the “sleep (insomnia)” value ([5]; esophageal cancer, hydrogen gas 1.3% by volume, approximately 30 mL/min, two to three hours per day, following the second inhalation) was “could sleep soundly”, the “ability to go out / body feeling” value ([5]; hydrogen gas 1.3% by volume, approximately 30 mL/min, two to three hours per day) was “the patient was able to go out” and the “hangover after too much alcohol” value ([5]; hydrogen inhaled before going to sleep) was “a hangover started improving earlier than usual”. For the same compound, the nausea ([6]; 90 minutes later) was “Nausea was gradually resolving”, the “malaise (body feeling)” value ([6]; one hour after start of inhalation) was “they felt the body becoming light” and the walking difficulty ([7]; from 10 days after initiation) was “able to walk”. The edema after dialysis ([7]; from one month after initiation) was “edema was reduced”, the malaise [8] was “malaise subsided” and the skin condition [8] was “the skin started becoming lustrous”.
